The values that follow come from patent publication US20050048563A1, “Membrane molecule indicator compositions and methods” (Novasite Pharmaceuticals, Inc, priority 2000, published 2005).

For assay [1], the system named is PLC. It is filed as cell-based, mouse.
Assay [2] has as its system adrenal glomerulosa cells. Put plainly: Confocal PLCδ1PH-GFP translocation in adrenal glomerulosa cells. It is filed as cell-based, bovine. Conditions: angiotensin II stimulation, 2 mM Sr^2+ or Ca^2+.

For the compound `CCCCCCCC/C=C\CCCCCCCC(=O)OCC(O)COP(=O)(O)O` (centres unmarked) [LPA, 1-oleoyl LPA], the “translocation amplitude relative to BK response control / BK-induced peak values” in assay [1] came to 25%.

As for aluminum fluoride [A1F^4−], in assay [1], the “desensitization of PLC activation” value was “no desensitization” and the “onset of PLC activation” value is listed as “slow”. Take neurokinin A [NKA]: in assay [1], the “desensitization of PLC activation on repeated NKA pulses” value is reported as “incremental partial homologous desensitization”; the “translocation of the probe (PLC activation profile)” value is “fast and near-complete translocation”. For “angiotensin II (DRVYIHPF; Angiotensin-2; UniProt P01019 25-32, looked up)”, the “translocation of PLCδ1PH-GFP in presence of Sr^2+ versus Ca^2+” value in assay [2] is on record as “not significantly different”.

With `NCCc1c[nH]cn1` [histamine], in assay [1], the “duration of translocation response” value was not below 15 min and the “translocation amplitude relative to BK response control / BK-induced peak values” was determined as 40%.
